Our source for the Ratio IC50 and IC50 values is ChEMBL document CHEMBL1145309, “Synthesis of biotinylated photoaffinity probes based on arylsulfonamide gamma-secretase inhibitors” (Bioorg Med Chem Lett, 2006).

One may read the IC50 as the point on the concentration scale where inhibition reaches its midpoint. Read a low IC50 as inhibition by little substance.

What all share (type): protein-complex assay
The target of experiment [1] is T1, Gamma-secretase (Homo sapiens) (UniProt Q96BI3+Q9NZ42+Q8WW43+P49768+Q92542+P49810). The experiment in a line: Inhibition of beta amyloid protein 40 production relative to 4-chloro-N-(2,5-difluorophenyl)-N-(1-(2-(3-(pyrrolidin-1-yl)propoxy)phenyl)ethyl)benzenesulfonamide.
In the next experiment the target is Gamma-secretase. The experiment can be described thus: Inhibition of beta amyloid protein 40 production.
Experiment [2] deals with T1, Gamma-secretase (Homo sapiens). The experiment in a line: Inhibition of beta amyloid protein 40 production relative to 4-chloro-N-phenyl-N-(1-(2-(3-(pyrrolidin-1-yl)propoxy)phenyl)ethyl)benzenesulfonamide.

`CC(c1ccc(C(=O)c2ccc(COC(=O)NCCCCCNC(=O)CCCC[C@@H]3SC[C@@H]4NC(=O)N[C@@H]43)cc2)cc1OCCCN1CCCC1)N(c1cc(F)ccc1F)S(=O)(=O)c1ccc(Cl)cc1` (some centres undefined): the Ratio IC50 in experiment [1] was found to be 690. For the same compound, it took 0.0029 µM to reach half-maximal inhibition on Gamma-secretase (IC50).

`CC(c1ccccc1OCCCN1CCCC1)N(c1ccc(Cl)cc1)S(=O)(=O)c1ccc(Cl)cc1` (centres undefined): the Ratio IC50 in experiment [1] is 1.5. On Gamma-secretase, this compound gave an IC50 of 1.3 µM.

On to `CC(c1ccccc1OCCCN1CCCC1)N(c1ccccc1)S(=O)(=O)c1ccc(C(F)(F)F)cc1` (centres undefined), for which half-maximal inhibition against Gamma-secretase (IC50) was put at 0.4 µM. Further, the Ratio IC50 in experiment [2] came out at 0.03.

With `COc1ccc(N(C(C)c2ccccc2OCCCN2CCCC2)S(=O)(=O)c2ccc(Cl)cc2)cc1` (centres undefined), the Ratio IC50 in experiment [1] was determined as 1.8. The same compound registered an IC50 at Gamma-secretase of 1.1 µM.

On to `CC(c1ccccc1OCCCN1CCCC1)N(c1ccccc1C(=O)c1ccccc1)S(=O)(=O)c1ccc(Cl)cc1` (centres undefined), for which the Ratio IC50 in experiment [1] was determined as 1.7. Moreover, the midpoint of inhibition against Gamma-secretase, the IC50, lay at 1.2 µM.

`CC(c1ccccc1OCCCN1CCOCC1)N(c1cc(F)ccc1F)S(=O)(=O)c1ccc(Cl)cc1` (centres undefined) showed a concentration for half-maximal inhibition (IC50) on Gamma-secretase of 4.4 µM.

On to `CC(c1ccccc1OCCCN1CCCC1)N(c1ccccc1)S(=O)(=O)c1ccc(F)cc1` (centres undefined), for which the IC50 on Gamma-secretase was 0.35 µM. Besides, in experiment [2], the Ratio IC50 was determined as 0.03.

On to `CC(c1ccccc1OCCCN1CCCC1)N(c1cccc(C(=O)c2ccccc2)c1)S(=O)(=O)c1ccc(Cl)cc1` (centres undefined), for which the Ratio IC50 in experiment [1] amounted to 0.7. This compound also returned an IC50 against Gamma-secretase of 3 µM.

`CC(c1ccccc1OCCCN1CCCC1)N(c1ccccc1)S(=O)(=O)c1ccc(Cl)cc1` (centres undefined): the Ratio IC50 in experiment [1] was 200. Besides, on Gamma-secretase, the 50% inhibitory concentration (IC50) was found to be 0.01 µM.

For the compound `CC(c1ccc(C(=O)c2ccccc2)cc1OCCCN1CCCC1)N(c1cc(F)ccc1F)S(=O)(=O)c1ccc(Cl)cc1` (centres undefined), the Ratio IC50 in experiment [1] is 15. The same compound came in with an IC50 on Gamma-secretase of 0.13 µM.

On to `COc1cccc(N(C(C)c2ccccc2OCCCN2CCCC2)S(=O)(=O)c2ccc(Cl)cc2)c1` (centres undefined), for which the Ratio IC50 in experiment [1] was 3.8. This compound displayed a half-maximal inhibitory concentration (IC50) against Gamma-secretase of 0.53 µM.

`CC(c1ccc(C(=O)c2ccccc2)cc1OCCCN1CCCC1)N(c1ccccc1)S(=O)(=O)c1ccc(Cl)cc1` (centres undefined): in experiment [1], the Ratio IC50 stood at 0.1. The IC50 on Gamma-secretase was 17 µM.

In turn, `CC(c1ccccc1OCCCN1CCCCC1)N(c1cc(F)ccc1F)S(=O)(=O)c1ccc(Cl)cc1` (centres undefined) came in with an IC50 on Gamma-secretase of 2.1 µM.

On to `COc1ccccc1N(C(C)c1ccccc1OCCCN1CCCC1)S(=O)(=O)c1ccc(Cl)cc1` (centres undefined), for which the Ratio IC50 in experiment [1] turned out to be 4.3. At Gamma-secretase, this compound displayed an IC50 of 0.47 µM.

Turning to `CC(c1ccc(C(=O)c2ccccc2)cc1OCCCN1CCCC1)N(c1cc(F)c(OCC(=O)NCCCCCNC(=O)CCCC[C@@H]2SC[C@@H]3NC(=O)N[C@@H]32)cc1F)S(=O)(=O)c1ccc(Cl)cc1` (some centres undefined), the Ratio IC50 in experiment [1] is 200. This compound gave an IC50 against Gamma-secretase of 0.01 µM.

Turning to `CC(c1ccccc1OCCCN1CCCC1)N(c1cc(F)ccc1F)S(=O)(=O)c1ccc(Cl)cc1` (centres undefined), at Gamma-secretase, it took 2 µM to reach half-maximal inhibition (IC50).

For the compound `CC(c1ccccc1OCCCN1CCCC1)N(c1ccccc1)S(=O)(=O)c1ccc(Br)cc1` (centres undefined), it took 1.9 µM to reach half-maximal inhibition at Gamma-secretase (IC50). Also, in experiment [2], the Ratio IC50 was determined as 0.005.

For the compound `CC(c1ccccc1OCCCN1CCCC1)N(c1ccccc1Cl)S(=O)(=O)c1ccc(Cl)cc1` (centres undefined), in experiment [1], the Ratio IC50 is 4. Moreover, the IC50 on Gamma-secretase is 0.49 µM.

In turn, `CCN(CC)CCCOc1ccccc1C(C)N(c1cc(F)ccc1F)S(=O)(=O)c1ccc(Cl)cc1` (centres undefined) yielded an IC50 against Gamma-secretase of 1 µM.

Turning to `CC(c1ccccc1OCCCN1CCCC1)N(c1ccc(C(=O)c2ccccc2)cc1)S(=O)(=O)c1ccc(Cl)cc1` (centres undefined), the Ratio IC50 in experiment [1] was 0.6. Further, the IC50 at Gamma-secretase was found to be 3.2 µM.

As to `CC(c1ccc(C(=O)c2ccc(COC(=O)NCCCCCCCCNC(=O)CCCC[C@@H]3SC[C@@H]4NC(=O)N[C@@H]43)cc2)cc1OCCCN1CCCC1)N(c1cc(F)ccc1F)S(=O)(=O)c1ccc(Cl)cc1` (some centres undefined), the Ratio IC50 in experiment [1] came to 328. Besides, on Gamma-secretase, the half-maximal inhibitory concentration (IC50) was determined as 0.0061 µM.

`CC(c1ccccc1OCCCN1CCCC1)N(c1ccccc1)S(=O)(=O)c1ccccc1` (centres undefined) displayed an IC50 on Gamma-secretase of 0.69 µM. Further, in experiment [2], the Ratio IC50 amounted to 0.01.

As to `CC(c1ccc(C(=O)c2ccccc2)cc1OCCCN1CCCC1)N(c1cc(F)c(OCC(=O)NCCCCCCCCNC(=O)CCCC[C@@H]2SC[C@@H]3NC(=O)N[C@@H]32)cc1F)S(=O)(=O)c1ccc(Cl)cc1` (some centres undefined), in experiment [1], the Ratio IC50 worked out at 100. For the same compound, half-maximal inhibition on Gamma-secretase (IC50) was put at 0.02 µM.

Take `CC(c1ccccc1OCCCN1CCCC1)N(c1cccc(Cl)c1)S(=O)(=O)c1ccc(Cl)cc1` (centres undefined): the Ratio IC50 in experiment [1] was found to be 3.8. The same compound had an IC50 at Gamma-secretase of 0.53 µM.
